Measurements as given in patent publication US8816052B2, “Mutant apoprotein of photoprotein with low calcium sensitivity” (JNC Corporation, priority 2011, dated 2014).

How the values were obtained:
Assay type in all cases: biochemical
[1] = molecular target: T1, Native Aequorin (Aequorea victoria, UniProt P02592); assay: Substrate specificity: semi-synthetic aequorin from coelenterazine analogue and purified apoaequorin; conditions: for Luminescence Intensity for 60 Secs: CTZ = 100; for Relative Luminescence Intensity: CTZ = 100, 50 mM calcium solution
T1 construct: His tag (from the vector name piP-His-HE); made in house
T1 sequence (P02592 9-196 limits assumed): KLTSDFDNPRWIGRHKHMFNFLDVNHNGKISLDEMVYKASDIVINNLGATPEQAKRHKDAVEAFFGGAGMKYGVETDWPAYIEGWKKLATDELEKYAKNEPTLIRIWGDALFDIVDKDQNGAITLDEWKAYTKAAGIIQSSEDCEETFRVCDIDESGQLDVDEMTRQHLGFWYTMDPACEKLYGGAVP
Procedure: (§1) AM20 was prepared to examine the properties. Specifically, 1 ml of 30 mM Tris-HCl (pH 7.6) containing 10 mM EDTA was mixed with 2-mercaptoethanol (1 μl) and a solution of the coelenterazine analogue (1 μg/μl) dissolved in ethanol. Then, 10 μl of the purified apoaequorin or recombinant mutant apoaequorin AM20 was added to the mixture, which was allowed to stand on ice (4° C.) for 5 hours to perform the regeneration reaction. […] The half decay time was determined from the luminescence patterns.

[2] = molecular target: T2, Mutant Aequorin AM20 (Aequorea victoria, UniProt P02592, H34Q/K37A/N33D/S39T/V32K); conditions: for Half Decay Time / Luminescence Intensity for 60 Secs / Relative Luminescence Intensity: Mutant Aequorin AM20; for Luminescence Intensity for 60 Secs / Relative Luminescence Intensity: CTZ = 100; for Relative Luminescence Intensity: 50 mM calcium solution; for half decay time of the luminescence of the semi-synthetic aequorin: analogue as light-emitting substrate, statement in words
T2 construct: OmpA secretory signal peptide (N); histidine tag (N); made in house; host or cells: Escherichia coli strain WA802
Procedure: as §1

[3] = Luminescence activity and half decay time of mutant aequorins regenerated from E. coli extracts; conditions: E. coli JM83 extract regenerated with coelenterazine, final calcium 25 mM
Procedure: To express in Escherichia coli the mutant apoaequorin expression vector having the replaced other EF hand loop sequence which was constructed in (2) above, the mutant apoaequorin expression vector was transfected to Escherichia coli JM83 in a conventional manner. The transformants obtained were inoculated into 10 ml of LB liquid medium (10 g of bacto-tryptone, 5 g of yeast extract and 5 g of sodium chloride, per liter of water, pH 7.2) containing ampicillin (50 μg/ml) and cultured at 37° C. for 18 hours. […] Subsequently, 2-mercaptoethanol (1 μl) (manufactured by Wako Pure Chemical Industry) and a solution of substrate coelenterazine in ethanol (1 μg/μl) (JNC Corporation, hereinafter the same) were mixed with the recombinant mutant apoaequorin extract. The mixture was allowed to stand on ice (4° C.) for 18 hours thereby to regenerate into the mutant aequorin. […] The final calcium level in the reaction solution was 25 mM. The luminescence activity was expressed by relative activity (%) to the maximum intensity (Imax).

T2 sequence (P02592 9-196 V32K/N33D/H34Q/K37A/S39T): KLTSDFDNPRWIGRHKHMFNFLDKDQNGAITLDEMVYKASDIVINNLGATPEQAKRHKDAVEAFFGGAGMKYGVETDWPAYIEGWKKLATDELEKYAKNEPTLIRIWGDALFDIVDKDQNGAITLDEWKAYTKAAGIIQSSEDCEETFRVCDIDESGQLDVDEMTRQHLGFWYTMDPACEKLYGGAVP

Molecule | Half Decay Time [1] [s] | Luminescence Intensity for 60 Secs [1] [%] | Relative Luminescence Intensity [1] [%] | Half Decay Time [2] [s] | Luminescence Intensity for 60 Secs [2] [%] | Relative Luminescence Intensity [2] [%] | half decay time of the luminescence of the semi-synthetic aequorin [2] | Relative Luminescence Activity ([3]; 50 mM calcium solution added, measured 30 seconds, relative to maximum intensity (Imax)) [%] | Half Decay Time ([3]; time until luminescence reaches half of maximum intensity) [s]
O=c1c(Cc2cccc(O)c2)nc2c(Cc3ccccc3)[nH]c(-c3ccc(O)cc3)cn1-2 [3iso-CTZ, 3iso-coelenterazine] | 0.24 | 13.4 | 51.6 | 0.66 | 9.2 | 224 |  |  | 
Cc1cccc(Cc2nc3c(Cc4ccccc4)[nH]c(-c4ccc(O)cc4)cn-3c2=O)c1 [3me-CTZ, 3me-coelenterazine] | 0.51 | 21.2 | 35.0 | 3.69 | 35.5 | 125 |  |  | 
COc1cccc(Cc2nc3c(Cc4ccccc4)[nH]c(-c4ccc(O)cc4)cn-3c2=O)c1 [3meo-CTZ, 3meo-coelenterazine] | 0.52 | 35.6 | 64.9 | 1.43 | 25.0 | 266 |  |  | 
Oc1ccc(Cc2nc3c(Cc4ccccc4)nc(-c4ccc(O)cc4)cn3c2O)cc1 [CTZ, coelenterazine] | 0.81 | 100 | 100 | 14.12 | 100 | 100 |  |  | 
O=c1c(Cc2ccc(C(F)(F)F)cc2)nc2c(Cc3ccccc3)[nH]c(-c3ccc(O)cc3)cn1-2 [cf3-CTZ, cf3-coelenterazine] | 5.95 | 48.6 | 6.3 | >60 | 18.6 | 7.5 | extremely prolonged |  | 
Oc1ccc(-c2cn3c(O)c(Cc4ccccc4)nc3c(Cc3ccccc3)n2)cc1 [h-CTZ, h-coelenterazine] | 0.69 | 70.1 | 87.9 | 2.98 | 45.4 | 220 |  |  | 
O=c1c(Cc2ccccc2)nc2c(CC3CCCC3)[nH]c(-c3ccc(O)cc3)cn1-2 [hcp-CTZ, hcp-coelenterazine] | 0.51 | 14.3 | 20.5 | 0.61 | 7.6 | 187 |  |  | 
Cc1ccc(Cc2nc3c(Cc4ccccc4)[nH]c(-c4ccc(O)cc4)cn-3c2=O)cc1 [me-CTZ, me-coelenterazine] | 5.00 | 45.0 | 5.8 | >60 | 15.4 | 6.8 | extremely prolonged |  | 
COc1ccc(Cc2nc3c(Cc4ccccc4)[nH]c(-c4ccc(O)cc4)cn-3c2=O)cc1 [meo-CTZ, meo-coelenterazine] | 1.63 | 60.1 | 22.3 | 18.35 | 35.6 | 26.6 | extremely prolonged |  | 
Bis-coelenterazine [Bis-CTZ] |  | 0.0 | 0.0 |  | 0.0 | 0.0 |  |  | 
ameh-coelenterazine [αmeh-CTZ] | 0.35 | 0.9 | 2.2 | 0.61 | 0.9 | 19.4 |  |  | 
et-coelenterazine [et-CTZ] | 1.21 | 44.1 | 27.3 | 1.94 | 33.6 | 56.7 |  |  | 
i-coelenterazine [i-CTZ] | 11.42 | 65.3 | 5.0 | >60 | 9.8 | 3.6 | extremely prolonged |  | 
n-coelenterazine [n-CTZ] | 4.71 | 24.0 | 3.6 | 44.04 | 1.9 | 1.0 | extremely prolonged |  | 
pAM2 + X: aequorin expressed with vector pAM2+X; EF hand loop [I] DVNHNGKISLDE (SEQ ID NO: 13); native aequorin reference (protein) MTMITPSCKLTSDFDNPRWIGRHKHMFNFLDVNHNGKISLDEMVYKASDIVINNLGATPEQAKRHKDAVEAFFGGAGMKYGVETDWPAYIEGWKKLATDELEKYAKNEPTLIRIWGDALFDIVDKDQNGAITLDEWKAYTKAAGIIQSSEDCEETFRVCDIDESGQLDVDEMTRQHLGFWYTMDPACEKLYGGAVP |  |  |  |  |  |  |  | 100.0 | 1.3
